“And” between values parts separate entries of the source, which are not always exact repeats. Identical values can stand only once.
System: DU-145 multicell spheroids with HUVEC/MSC, viability
Assay: Anticancer human tumor DU-145 cell line growth inhibition [IpAb];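 further: spheroids exposed to agents for seven days before measurement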;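 on viability, T/C: percent of DMSO vehicle control viability so 100% = untreated level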
Conditions: for viability, T/C: stronger effect = lower value
Source text: Combinatorial screen of targeted agents with ipatasertib and abemaciclib in multi-cell type tumor spheroids
A high-throughput screen of multi-cell type tumor spheroids was designed to identify active combinations of targeted small molecules and ipatasertib or abemaciclib. Complex spheroids include a stromal component modeled by human endothelial cells (HUVEC) and fibroblasts modeled by human mesenchymal stem cells (MSCs). The concentration ranges selected for each drug and investigational agent were based upon clinically achievable concentrations if the clinical Cmax of the agent was known.
Compounds. The drugs and investigational agents: ipatasertib (NSC767898), abemaciclib(NSC768073), selumetinib (NSC741078), trametinib (758246), adavosertib (NSC754352), everolimus (NSC733504), sapanisertib (NSC764658), vemurafenib (NSC761431), venetoclax (NSC766270), copanlisib (NSC809693), apelisib (NSC765974), palbociblib (NSC758247), vemurafenib (NSC761431), dabrafenib (NSC764134), ravoxertinib (NSC781343), BMS-387032 (NSC767048), sotorasib (NSC818433), talazoparib (NSC767125) and afursertib (NSC778305), were obtained from the National Cancer Institute (NCI) Developmental Therapeutics Program Chemical Repository. The FDA-approved anticancer drug set is available from the NCI Developmental Therapeutics Program. […] The stock solutions were prepared in dimethyl sulfoxide (DMSO, Sigma-Aldrich, St. Louis, MO, cat. D2650) at 800-fold the tested concentration and stored at -70 degrees C prior to their use. All drugs and investigational agents were tested over a range starting from a high concentration at or near the clinical Cmax and decreasing in half-log increments. If the clinical Cmax for an agent had not been determined, the highest concentration tested was 10 microM.
NCI60 Cell Culture. NCI60 cell lines were obtained from the NCI Developmental Therapeutics Program Tumor Repository. For each lot of cells, the Repository performed Applied Biosystems AmpFLSTR Identifiler testing with PCR amplification to confirm consistency with the published Identifier STR profile for each cell line. Cells were kept in continuous culture for no more than 20 passages. The optimal seeding densities for each of the cell lines at each time point assessed were determined prior to performing the concentration response studies. Briefly, the NCI60 human tumor lines were grown as monolayers in RPMI 1640 medium supplemented with 10% FBS and 2 mmol/L L-glutamine.
An additional 9 lines were from the NCI60 cell line panel including MDA-MB-231 breast carcinoma, MDA-MB-468 breast carcinoma, MCF7 breast carcinoma, Hs578T breast carcinoma, MALME-3M melanoma, SK-MEL-2 melanoma, SK-OV-3 ovarian carcinoma, DU-145 prostate carcinoma, PC-3 prostate carcinoma, all cell lines along with major genetic alterations are listed on Table 2. Pooled donor human umbilical vein endothelial cells (HUVEC, Lonza, cat. CC-2519) and human mesenchymal stem cells (hMSC, Lonza, cat. PT-2501) were purchased from Lonza (Walkersville, MD).
PDMR cell lines were grown in complete medium (DC medium): Dulbecco's modified Eagle's medium (DMEM)/F12 supplemented with 5% fetal bovine serum (FBS), 2 mM L-glutamine, 100 U/mL penicillin and 100 µg/ml streptomycin, 0.4 µg/ml hydrocortisone, 10 ng/ml epidermal growth factor (EGF) recombinant human protein, 24 µg/mL adenine, and 0.1 mg/mL primocin. During culture from frozen stock vials, PDMR cells were cultured in the same medium containing 10 µM Y-27632 (see Table 3). The PDCs were cultured in complete DMEM/F12 media without 10 microM Y-27632 dihydrochloride for at least two passages prior to the screen. The pooled donor HUVEC and hMSC were cultured in endothelial cell growth medium 2 (PromoCell, Heidelberg, Germany, cat. C-22011) and mesenchymal stem cell growth medium 2 (PromoCell, cat. C-28009), respectively. For all experiments, HUVEC and hMSC were used at passages </=5.
[…]

[1] = curve of first compound, second compound 0.1 µM
[2] = curve of first compound, second compound 0.316 µM
[3] = curve of first compound, second compound 1 µM
[4] = curve of first compound, second compound 3.16 µM
[5] = curve of first compound, second compound 10 µM

In the case of `CC(C)NCC(C(=O)N1CCN(c2ncnc3c2C(C)CC3O)CC1)c1ccc(Cl)cc1` (stereo not drawn), the viability, T/C (compound 0.1 µM) is reported as 81.1% [middle of 13 runs], the viability, T/C (compound 0.316 µM) is reported as 53.8% [middle of 13 runs] and the viability, T/C (compound 1 µM) is reported as 30.9% [middle of 13 runs]. The viability, T/C (compound 3.16 µM) was 21.7% [middle of 13 runs], the viability, T/C (compound 10 µM) was 17.5% [middle of 13 runs] and the IC50 (compound alone, run of 06/01/2021) was 381 nM [middle of 13 runs].
Compound `CC(=O)c1c(C)c2cnc(Nc3ccc(N4CCNCC4)cn3)nc2n(C2CCCC2)c1=O` + CC(C)NCC(C(=O)N1CCN(c2ncnc3c2C(C)CC3O)CC1)c1ccc(Cl)cc1 has an IC50 [1] greater than 300 nM, an IC50 [2] greater than 300 nM and an IC50 [3] of less than 0.949 nM. For the same compound, the IC50 [4] was less than 0.949 nM, the IC50 [5] was less than 0.949 nM and the viability, T/C (second compound 0.1 µM, first compound 0.000949 µM) was 85.3%. For the same compound, the viability, T/C (second compound 0.1 µM, first compound 0.003 µM) was 79.7%, the viability, T/C (second compound 0.1 µM, first compound 0.00949 µM) was 83.4% and the viability, T/C (second compound 0.1 µM, first compound 0.03 µM) was 89.2%. The viability, T/C (second compound 0.1 µM, first compound 0.0949 µM) was 81.8%, the viability, T/C (second compound 0.1 µM, first compound 0.3 µM) was 83.7% and the viability, T/C (second compound 0.316 µM, first compound 0.000949 µM) was 53%. The viability, T/C (second compound 0.316 µM, first compound 0.003 µM) was 52.1%, the viability, T/C (second compound 0.316 µM, first compound 0.00949 µM) was 52.2% and the viability, T/C (second compound 0.316 µM, first compound 0.03 µM) was 48.1%. It also gave a viability, T/C (second compound 0.316 µM, first compound 0.0949 µM) of 48.8%, a viability, T/C (second compound 0.316 µM, first compound 0.3 µM) of 54.7% and a viability, T/C (second compound 1 µM, first compound 0.000949 µM) of 29.3%. It also gave a viability, T/C (second compound 1 µM, first compound 0.003 µM) of 30.7%, a viability, T/C (second compound 1 µM, first compound 0.00949 µM) of 28.9% and a viability, T/C (second compound 1 µM, first compound 0.03 µM) of 28.7%. It also gave a viability, T/C (second compound 1 µM, first compound 0.0949 µM) of 28.6%, a viability, T/C (second compound 1 µM, first compound 0.3 µM) of 27.8% and a viability, T/C (second compound 3.16 µM, first compound 0.000949 µM) of 20.3%. The viability, T/C (second compound 3.16 µM, first compound 0.003 µM) was 19.7%, the viability, T/C (second compound 3.16 µM, first compound 0.00949 µM) was 19.2% and the viability, T/C (second compound 3.16 µM, first compound 0.03 µM) was 19.5%. It also gave a viability, T/C (second compound 3.16 µM, first compound 0.0949 µM) of 20.3%, a viability, T/C (second compound 3.16 µM, first compound 0.3 µM) of 19.9% and a viability, T/C (second compound 10 µM, first compound 0.000949 µM) of 16.8%. It also gave a viability, T/C (second compound 10 µM, first compound 0.003 µM) of 15.5%, a viability, T/C (second compound 10 µM, first compound 0.00949 µM) of 15.5% and a viability, T/C (second compound 10 µM, first compound 0.03 µM) of 17.2%. For the same compound, the viability, T/C (second compound 10 µM, first compound 0.0949 µM) was 15.6% and the viability, T/C (second compound 10 µM, first compound 0.3 µM) was 16.1%.
In the case of `CCCS(=O)(=O)Nc1ccc(F)c(C(=O)c2c[nH]c3ncc(-c4ccc(Cl)cc4)cc23)c1F` + CC(C)NCC(C(=O)N1CCN(c2ncnc3c2C(C)CC3O)CC1)c1ccc(Cl)cc1, the IC50 [1] is reported as greater than 10000 nM, the IC50 [2] is reported as greater than 10000 nM and the IC50 [3] is reported as less than 31.6 nM. The IC50 [4] was less than 31.6 nM, the IC50 [5] was less than 31.6 nM and the viability, T/C (second compound 0.1 µM, first compound 0.0316 µM) was 88.2%. For the same compound, the viability, T/C (second compound 0.1 µM, first compound 0.1 µM) was 91.3%, the viability, T/C (second compound 0.1 µM, first compound 0.316 µM) was 86.6% and the viability, T/C (second compound 0.1 µM, first compound 1 µM) was 96.3%. For the same compound, the viability, T/C (second compound 0.1 µM, first compound 3.16 µM) was 96.7%, the viability, T/C (second compound 0.1 µM, first compound 10 µM) was 68.2% and the viability, T/C (second compound 0.316 µM, first compound 0.0316 µM) was 53.9%. The viability, T/C (second compound 0.316 µM, first compound 0.1 µM) was 64.1%, the viability, T/C (second compound 0.316 µM, first compound 0.316 µM) was 61.4% and the viability, T/C (second compound 0.316 µM, first compound 1 µM) was 76.4%. It also gave a viability, T/C (second compound 0.316 µM, first compound 3.16 µM) of 66.8%, a viability, T/C (second compound 0.316 µM, first compound 10 µM) of 43.6% and a viability, T/C (second compound 1 µM, first compound 0.0316 µM) of 33.1%. The viability, T/C (second compound 1 µM, first compound 0.1 µM) was 31.8%, the viability, T/C (second compound 1 µM, first compound 0.316 µM) was 37.7% and the viability, T/C (second compound 1 µM, first compound 1 µM) was 41.2%. It also gave a viability, T/C (second compound 1 µM, first compound 3.16 µM) of 46.3%, a viability, T/C (second compound 1 µM, first compound 10 µM) of 29.9% and a viability, T/C (second compound 3.16 µM, first compound 0.0316 µM) of 22.3%. For the same compound, the viability, T/C (second compound 3.16 µM, first compound 0.1 µM) was 25.9%, the viability, T/C (second compound 3.16 µM, first compound 0.316 µM) was 24.4% and the viability, T/C (second compound 3.16 µM, first compound 1 µM) was 22.4%. The viability, T/C (second compound 3.16 µM, first compound 3.16 µM) was 23.6%, the viability, T/C (second compound 3.16 µM, first compound 10 µM) was 20.3% and the viability, T/C (second compound 10 µM, first compound 0.0316 µM) was 19.6%. It also gave a viability, T/C (second compound 10 µM, first compound 0.1 µM) of 20.1%, a viability, T/C (second compound 10 µM, first compound 0.316 µM) of 19.1% and a viability, T/C (second compound 10 µM, first compound 1 µM) of 19.7%. It also gave a viability, T/C (second compound 10 µM, first compound 3.16 µM) of 18.3% and a viability, T/C (second compound 10 µM, first compound 10 µM) of 14.2%.
`CCCS(=O)(=O)Nc1ccc(F)c(C(=O)c2c[nH]c3ncc(-c4ccc(Cl)cc4)cc23)c1F` was tested, and the viability, T/C (compound 0.0316 µM) was 112% and 110%, the viability, T/C (compound 0.1 µM) was 108% and 114% and the viability, T/C (compound 0.316 µM) was 110% and 116%. For the same compound, the viability, T/C (compound 1 µM) was 115% and 118%, the viability, T/C (compound 3.16 µM) was 109% and 113% and the viability, T/C (compound 10 µM) was 79.7% and 82.9%. For the same compound, the IC50 (curve of compound) was greater than 10000 nM.

Source: PubChem BioAssay AID2060335 (Molecular Pharmacology Branch, DTP, NCI, 2025)
